Read-outs that look alike come from different tables or passages of the source.
Assays:
[1] = target: rhodesain (Trypanosoma brucei rhodesiense, UniProt Q95PM0); assay: Rhodesain fluorescence-based inhibition assay (Z-FR-AMC); type: biochemical; details: Table S3; compound 100 µM
Protocol: Rhodesain activity was measured using a fluorescence-based assay as previously described ([Fonseca et al., 2015]). The cleavage rates of the fluorogenic substrate Z-Phe-Arg-aminomethyl coumarin (Z-FR-AMC) were monitored at wavelengths of 340 nm for excitation and 440 nm for emission. All assays were performed in triplicate in a 0.1 M sodium acetate buffer, pH 5.5, with 1 mM beta-mercaptoethanol and 0.01% Triton X-100. The final concentration of rhodesain was 3 nM, and the substrate concentration was 2.5 μM. The cleavage of the substrate was followed by continuous reading for 5 min, and enzyme activity in the presence of 100 μM of each potential inhibitor was calculated based on initial velocity rates compared to DMSO controls. All compounds were tested in triplicate in three independent experiments.

[2] = In vivo pharmacokinetics in male CD1 mice; parameters: species or system mouse; details: for bioavailability / C0 / AUC / half-life / Vd / Tmax / Cmax: plasma; for bioavailability: oral bioavailability; for clearance: plasma clearance, read-out: CLp (L/h/kg) IV (converted)
Protocol: The in vivo pharmacokinetic profiles of the compounds were determined using male CD1 mice weighing […] ([Davies and Morris, 1993]; [Liu and Jia, 2007]). The compounds were administered in a single dose orally (0.5 mg/kg) and intravenously (0.5 mg/kg). Stock solutions of the compounds in DMSO were diluted in Tween 80, PEG-400, and D5W (5% dextrose in water) at a ratio of 2:5:20:73 (v/v). The injection volume was 10 ml/kg. The remaining plasma concentration was monitored over time by LC-MS/MS by collecting blood samples (40 μl) at 10, 25, and 50 min and 1, 3, 6, 9, 12, and 24 h after administration of the compound.
For the biotransformation experiments and analysis of metabolites in microsomes, an Ultra-High-Pressure Liquid Chromatography instrument (UHPLC, Thermo Accela, Waltham, MA) ([Spaggiari et al., 2014]) connected to an automatic sample injector and a 1250 series pump was used. The UHPLC system was connected to a Thermo Fisher (Waltham, MA) LTQ Orbitrap mass spectrometer. For all other analyses, an AB Sciex Triple Quad 5500 coupled to a UHPLC equipped with a UV 1290 diode detector (Agilent Technologies, Santa Clara, CA) and a CTC PAL self-collecting system (LEAP Technologies, Carrboro, NC) was used. Q1 MS positive ion mode (300–500 Da) was used to detect the ions of the parent compounds. The UV detector was operated in spectral mode (250–280 nm). A Hypersil Gold C18 (2.1 mm × 100 mm, 1.9 µm, Thermo Fisher) HPLC column was used. The mobile phases were solvent A (0.1% formic acid in water) and solvent B (0.1% formic acid in ACN). The flow was adjusted to 0.55 ml/min, and the injection volume was adjusted to […]. The gradient started with 1% solvent B for 0.4 min, reached 40% (solvent B) in 2.3 min and 95% (solvent B) in 0.67 min, was maintained for 0.5 min, and returned to the initial condition of 1%. This condition was maintained for 1 min before injection of the next sample. The peak area ratio (peak area of the test compounds/peak area of the control compounds) was converted to the percentage of remaining compound, with the 0 min time point ratio set to 100%. T½ and CLint were calculated from the percentage of remaining compound versus the incubation time. From the resulting function, the slope (k) was determined. The equations T1/2 (min) = ln(2)/k and CLint in vitro (μL/min/mg) = k*1000/0.25 were used to determine T½ and CLint.

[3] = Table 6, plasma clearance corrected for the fraction unbound, IV
[4] = mouse, 0.5 mg/kg, Table 6, male CD1 mice
[5] = mouse, Table 6, IV 0.5 mg/kg, male CD1 mice
[6] = mouse, Table 6, IV 0.5 mg/kg, male CD1 mice, read-out: AUC (ng*h/ml) IV
[7] = mouse, Table 6, IV 0.5 mg/kg, male CD1 mice, read-out: T1/2 (h) IV (converted)
[8] = mouse, Table 6, IV 0.5 mg/kg, male CD1 mice, read-out: V SS (L/kg) IV
[9] = mouse, Table 6, PO 0.5 mg/kg, male CD1 mice
[10] = mouse, Table 6, PO 0.5 mg/kg, male CD1 mice, read-out: AUC (ng*h/ml) PO
[11] = Table S6, plasma clearance corrected for the fraction unbound
[12] = male, CD1, mouse, 0.5 mg/kg, Table S6, IV, mice
[13] = male, CD1, mouse, 0.5 mg/kg, Table S6, IV, mice, read-out: AUC (ng*h/mL) IV
[14] = male, CD1, mouse, 0.5 mg/kg, Table S6, IV, mice, read-out: T1/2(h) IV (converted)
[15] = male, CD1, mouse, 0.5 mg/kg, Table S6, IV, mice, read-out: VSS (L/kg) IV
[16] = male, CD1, mouse, 0.5 mg/kg, Table S6, PO, mice
[17] = male, CD1, mouse, 0.5 mg/kg, Table S6, PO, mice, read-out: AUC (ng*h/mL) PO
[18] = male, CD1, mouse, 0.5 mg/kg, Table S6, mice
[19] = male, CD1, mouse, 0.5 mg/kg, Table S6, PO, mice, read-out: T1/2 (h) PO (converted)
[20] = mouse, Table 6, PO 0.5 mg/kg, male CD1 mice, read-out: T1/2 (h) PO (converted)

rhodesain, sequence (Q95PM0 entry or part of it): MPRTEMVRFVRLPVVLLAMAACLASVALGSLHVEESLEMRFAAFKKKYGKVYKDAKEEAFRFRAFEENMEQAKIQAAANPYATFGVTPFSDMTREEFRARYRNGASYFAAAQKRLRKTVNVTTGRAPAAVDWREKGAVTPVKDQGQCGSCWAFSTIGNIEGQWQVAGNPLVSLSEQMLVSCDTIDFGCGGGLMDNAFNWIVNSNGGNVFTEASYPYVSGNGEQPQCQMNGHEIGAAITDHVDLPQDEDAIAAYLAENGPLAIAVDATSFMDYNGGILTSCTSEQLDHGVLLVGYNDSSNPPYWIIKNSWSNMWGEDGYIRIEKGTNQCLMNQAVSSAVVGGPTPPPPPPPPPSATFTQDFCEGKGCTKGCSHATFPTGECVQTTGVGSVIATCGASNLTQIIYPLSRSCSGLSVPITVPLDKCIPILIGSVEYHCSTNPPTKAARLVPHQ

| Compound | CLpu [2, 3] | bioavailability [2, 4] | C0 [2, 5] | AUC [2, 6] | half-life [2, 7] | Vd [2, 8] | Tmax [2, 9] | clearance [2, 5] | CLpu [2, 11] | clearance [2, 12] | C0 [2, 12] | AUC [2, 13] | half-life [2, 14] | Vd [2, 15] | Cmax [2, 9] | further results |
| --- | --- | --- | --- | --- | --- | --- | --- | --- | --- | --- | --- | --- | --- | --- | --- | --- |
| COc1ccc2cc(OCC(=O)NCCc3nc4ccccc4[nH]3)ccc2c1 [Compound 12] | – | – | – | – | – | – | – | – | – | – | – | – | – | – | – | inhibition at 100 µM [1]: 56% |
| O=C(COc1ccccc1[N+](=O)[O-])NCCc1nc2ccccc2[nH]1 [Compound 32] | 2623 mL/min/kg | 1.9% | 220 ng/mL | 53 ng·h/mL | 0.2 h | 2.5 L/kg | 18 min | 5.9 L/h/kg | – | – | – | – | – | – | – | AUC [2, 10]: 1 ng·h/mL |
| O=C(CCc1ccccc1Br)NCCc1nc2ccccc2[nH]1 [Compound 36] | 3858 mL/min/kg | 0% | 144 ng/mL | 55 ng·h/mL | 0.5 h | 7.2 L/kg | – | 9.5 L/h/kg | – | – | – | – | – | – | – | – |
| Cc1ccccc1OCC(=O)NCCc1nc2ccccc2[nH]1 [Compound 17] | 1738 mL/min/kg | 0% | 153 ng/mL | 83 ng·h/mL | 0.5 h | 4.4 L/kg | – | 6.3 L/h/kg | – | – | – | – | – | – | – | – |
| CC(=O)Nc1cccc(OCC(=O)NCCc2nc3ccccc3[nH]2)c1 [Compound 3] | – | – | – | – | – | – | – | – | 242.5 mL/min/kg | 2.31 L/h/kg | 12000 ng/mL | 916 ng·h/mL | 0.35 h | 0.45 L/kg | – | inhibition at 100 µM [1]: 41%; Cmax [2, 16]: 9 ng/mL; Tmax [2, 16]: 26.4 min; AUC [2, 17]: 9.91 ng·h/mL; bioavailability [2, 18]: 1% |
| Nc1cccc(OCC(=O)NCCc2nc3ccccc3[nH]2)c1 [Compound 9] | – | – | – | – | – | – | – | – | – | – | – | – | – | – | – | inhibition at 100 µM [1]: 40% |
| CC(=O)Nc1ccc(OCC(=O)NCCc2nc3ccccc3[nH]2)cc1 [Compound 2] | – | – | – | – | – | – | – | – | 69.3 mL/min/kg | 2.03 L/h/kg | 1040 ng/mL | 506 ng·h/mL | 0.63 h | 1.03 L/kg | – | Cmax [2, 16]: 54 ng/mL; Tmax [2, 16]: 49.8 min; AUC [2, 17]: 125 ng·h/mL; half-life [2, 19]: 1.21 h; bioavailability [2, 18]: 25% |
| O=C(COc1ccccc1)NCCc1nc2ccccc2[nH]1 [Compound 1] | – | – | – | – | – | – | – | – | 289.8 mL/min/kg | 4.01 L/h/kg | 988 ng/mL | 250 ng·h/mL | 0.21 h | 1.02 L/kg | – | Cmax [2, 16]: 21 ng/mL; Tmax [2, 16]: 19.2 min; AUC [2, 17]: 22.5 ng·h/mL; half-life [2, 19]: 0.73 h; bioavailability [2, 18]: 9% |
| O=C(COc1ccccc1Br)NCCc1nc2ccccc2[nH]1 [Compound 18] | 1728 mL/min/kg | 1.2% | 283 ng/mL | 84 ng·h/mL | 0.2 h | 1.8 L/kg | 18 min | 3.2 L/h/kg | – | – | – | – | – | – | – | AUC [2, 10]: 1 ng·h/mL |
| O=C(COc1ccc2ccc(O)cc2c1)NCCc1nc2ccccc2[nH]1 [Compound 11] | – | – | – | – | – | – | – | – | 8011 mL/min/kg | 12.9 L/h/kg | 400 ng/mL | 77 ng·h/mL | 0.13 h | 1.92 L/kg | – | inhibition at 100 µM [1]: 67% |
| O=C(COc1cccc([N+](=O)[O-])c1)NCCc1nc2ccccc2[nH]1 [Compound 8] | – | – | – | – | – | – | – | – | 396.2 mL/min/kg | 3.31 L/h/kg | 925 ng/mL | 322 ng·h/mL | 0.21 h | 1.04 L/kg | – | Cmax [2, 16]: 61 ng/mL; Tmax [2, 16]: 18.6 min; AUC [2, 17]: 44.6 ng·h/mL; half-life [2, 19]: 0.42 h; bioavailability [2, 18]: 14% |
| O=C(COc1ccc2ccccc2c1Br)NCCc1nc2ccccc2[nH]1 [Compound 34] | – | 5.6% | 255 ng/mL | 116 ng·h/mL | 0.3 h | 1.9 L/kg | 18 min | 7.6 L/h/kg | – | – | – | – | – | – | 7.6 ng/mL | CLpu (L/h/kg) [2, 3]: 2,874.7 L/h/kg; AUC [2, 10]: 6.5 ng·h/mL; half-life [2, 20]: 0.6 h |
| N#Cc1ccccc1OCC(=O)NCCc1nc2ccccc2[nH]1 [Compound 31] | 498 mL/min/kg | – | 232 ng/mL | 67 ng·h/mL | 0.2 h | 1.9 L/kg | 18 min | 4.6 L/h/kg | – | – | – | – | – | – | 12.8 ng/mL | – |
| O=C(COc1ccc2cc(O)ccc2c1)NCCc1nc2ccccc2[nH]1 [Compound 10] | – | – | – | – | – | – | – | – | 314 mL/min/kg | 6.52 L/h/kg | 660 ng/mL | 156 ng·h/mL | 0.14 h | 1.21 L/kg | – | inhibition at 100 µM [1]: 60%; bioavailability [2, 18]: 0% |
| O=C(COc1ccc2ccccc2c1)NCCc1nc2ccccc2[nH]1 [Compound 35] | 5577 mL/min/kg | 2% | 228 ng/mL | 86 ng·h/mL | 0.2 h | 2 L/kg | 18 min | 5.8 L/h/kg | – | – | – | – | – | – | 3.7 ng/mL | AUC [2, 10]: 1.7 ng·h/mL; half-life [2, 20]: 0.2 h |
| O=C(COc1ccc(Br)cc1)NCCc1nc2ccccc2[nH]1 [Compound 33] | 1010 mL/min/kg | 35.2% | 658 ng/mL | 160 ng·h/mL | 0.2 h | 0.6 L/kg | 18 min | 9.5 L/h/kg | – | – | – | – | – | – | 71.7 ng/mL | AUC [2, 10]: 56.5 ng·h/mL; half-life [2, 20]: 0.4 h |
| Cc1ccccc1OCC(=O)NCCc1nc2ccccc2o1 [Compound 37] | 3118 mL/min/kg | – | 169 ng/mL | 53 ng·h/mL | 0.2 h | 2.4 L/kg | 18 min | 9.5 L/h/kg | – | – | – | – | – | – | 14.6 ng/mL | – |
| C=CCCn1c(CCNC(=O)COc2ccccc2Cl)nc2ccccc21 [Compound 38] | 7175 mL/min/kg | – | 126 ng/mL | 82 ng·h/mL | 0.4 h | 3.3 L/kg | 18 min | 6.2 L/h/kg | – | – | – | – | – | – | 2.5 ng/mL | – |

From paper PMC8767159, “Multiparameter Optimization of Trypanocidal Cruzain Inhibitors With In Vivo Activity and Favorable Pharmacokinetics” (Frontiers in Pharmacology, 2022)
